Experimental data taken from paper PMC6979384, “Characterization of the plant homeodomain (PHD) reader family for their histone tail interactions” (Epigenetics & Chromatin, 2020).

Columns and labels:
Assay in all cases: Histone peptide microarray
Format in all cases: binding, human
[1] = system: ING5; conditions: sheet "Array Heatmap"; GST-tagged ING5; arrays performed twice, total replicate number n = 4
Excerpt: (§1) To more comprehensively define the histone interactions of the 31 PHD readers identified from the domain microarray analyses, we probed each on an alternate microarray platform containing a library of 293 synthetic histone peptides with single or combinatorial PTMs (Additional file 2: Figure S4 and Additional file 3: Table S2).
(§2) The 31 GST-tagged PHD readers identified in the PHD finger domain array were expressed and purified as previously. Histone peptide arrays and peptide pulldown assays were conducted as recently described (specifically, the optimized protocol from Petell et al. for the former).
(§3) Supplementary file 13072_2020_328_MOESM3_ESM.xlsx: Additional file 3: Table S2. […] Excel Tab Peptide List is a compiled list of the entire 293 histone peptide library with amino acid sequence ranges. […] Each number corresponds to the peptide number designated in Peptide List. Excel Tab Average Signals is a compiled set of binding data: chromatin reader at 0.5 μM vs. entire 293 peptide library. Data is presented as the average and standard deviation of 4 replicates. The average signals are colored to indicate signal intensity with green being strong and white being weak/low. […] Key: red= stronger relative binding; blue = weaker relative binding. Excel Tab Array info summary is a table summarizing the domains, sequence coverage, array signal range, and noise for each of the GST-tagged readers assayed on the peptide microarrays.

[2] = system: DIDO1; conditions: sheet "Array Heatmap"; GST-tagged DIDO1; arrays performed twice, total replicate number n = 4
Excerpt: as §1, §2, §3

[3] = system: BPTF (PB); conditions: sheet "Array Heatmap"; GST-tagged BPTF (PB); arrays performed twice, total replicate number n = 4
Excerpt: as §1, §2, §3

[4] = system: KDM5B (3); conditions: sheet "Array Heatmap"; GST-tagged KDM5B (3); arrays performed twice, total replicate number n = 4
Excerpt: as §1, §2, §3

[5] = system: PHF13; conditions: sheet "Array Heatmap"; GST-tagged PHF13; arrays performed twice, total replicate number n = 4
Excerpt: as §1, §2, §3

[6] = system: CHD4 (PPCC); conditions: sheet "Array Heatmap"; GST-tagged CHD4 (PPCC); arrays performed twice, total replicate number n = 4
Excerpt: as §1, §2, §3

[7] = system: PHRF1 (RP); conditions: sheet "Array Heatmap"; GST-tagged PHRF1 (RP); arrays performed twice, total replicate number n = 4
Excerpt: as §1, §2, §3

[8] = system: KDM5A (1); conditions: sheet "Array Heatmap"; GST-tagged KDM5A (1); arrays performed twice, total replicate number n = 4
Excerpt: as §1, §2, §3

[9] = system: PHF2; conditions: sheet "Array Heatmap"; GST-tagged PHF2; arrays performed twice, total replicate number n = 4
Excerpt: as §1, §2, §3

[10] = system: CHD5 (PPCC); conditions: sheet "Array Heatmap"; GST-tagged CHD5 (PPCC); arrays performed twice, total replicate number n = 4
Excerpt: as §1, §2, §3

[11] = system: ING3; conditions: sheet "Array Heatmap"; GST-tagged ING3; arrays performed twice, total replicate number n = 4
Excerpt: as §1, §2, §3

[12] = system: KDM4C (TTP); conditions: sheet "Array Heatmap"; GST-tagged KDM4C (TTP); arrays performed twice, total replicate number n = 4
Excerpt: as §1, §2, §3

[13] = system: MLL5; conditions: sheet "Array Heatmap"; GST-tagged MLL5; arrays performed twice, total replicate number n = 4
Excerpt: as §1, §2, §3

[14] = system: KDM7A; conditions: sheet "Array Heatmap"; GST-tagged KDM7A; arrays performed twice, total replicate number n = 4
Excerpt: as §1, §2, §3

[15] = system: RAG2; conditions: sheet "Array Heatmap"; GST-tagged RAG2; arrays performed twice, total replicate number n = 4
Excerpt: as §1, §2, §3

[16] = system: TRIM66 (PB); conditions: sheet "Array Heatmap"; GST-tagged TRIM66 (PB); arrays performed twice, total replicate number n = 4
Excerpt: as §1, §2, §3

[17] = system: KDM5A (3); conditions: sheet "Array Heatmap"; GST-tagged KDM5A (3); arrays performed twice, total replicate number n = 4
Excerpt: as §1, §2, §3

[18] = system: SP140L; conditions: sheet "Array Heatmap"; GST-tagged SP140L; arrays performed twice, total replicate number n = 4
Excerpt: as §1, §2, §3

[19] = system: ING1; conditions: sheet "Array Heatmap"; GST-tagged ING1; arrays performed twice, total replicate number n = 4
Excerpt: as §1, §2, §3

[20] = system: AIRE (PP); conditions: sheet "Array Heatmap"; GST-tagged AIRE (PP); arrays performed twice, total replicate number n = 4
Excerpt: as §1, §2, §3

[21] = system: BAZ2B; conditions: sheet "Array Heatmap"; GST-tagged BAZ2B; arrays performed twice, total replicate number n = 4
Excerpt: as §1, §2, §3

[22] = system: DPF2 (PPC2W2); conditions: sheet "Array Heatmap"; GST-tagged DPF2 (PPC2W2); arrays performed twice, total replicate number n = 4
Excerpt: as §1, §2, §3

[23] = system: PHF23; conditions: sheet "Array Heatmap"; GST-tagged PHF23; arrays performed twice, total replicate number n = 4
Excerpt: as §1, §2, §3

[24] = system: ING2; conditions: sheet "Array Heatmap"; GST-tagged ING2; arrays performed twice, total replicate number n = 4
Excerpt: as §1, §2, §3

[25] = system: ING4; conditions: sheet "Array Heatmap"; GST-tagged ING4; arrays performed twice, total replicate number n = 4
Excerpt: as §1, §2, §3

[26] = system: PHF21A; conditions: sheet "Array Heatmap"; GST-tagged PHF21A; arrays performed twice, total replicate number n = 4
Excerpt: as §1, §2, §3

[27] = system: KDM5B (1); conditions: sheet "Array Heatmap"; GST-tagged KDM5B (1); arrays performed twice, total replicate number n = 4
Excerpt: as §1, §2, §3

[28] = system: PHF8; conditions: sheet "Array Heatmap"; GST-tagged PHF8; arrays performed twice, total replicate number n = 4
Excerpt: as §1, §2, §3

[29] = system: MORC3 (CW); conditions: sheet "Array Heatmap"; GST-tagged MORC3 (CW); arrays performed twice, total replicate number n = 4
Excerpt: as §1, §2, §3

[30] = system: TAF3; conditions: sheet "Array Heatmap"; GST-tagged TAF3; arrays performed twice, total replicate number n = 4
Excerpt: as §1, §2, §3

[31] = system: CHD5 (PCC); conditions: sheet "Array Heatmap"; GST-tagged CHD5 (PCC); arrays performed twice, total replicate number n = 4
Excerpt: as §1, §2, §3

Row | Substance | Array Heatmap signal, ING5 [1] | Array Heatmap signal, DIDO1 [2] | Array Heatmap signal, BPTF (PB) [3] | Array Heatmap signal, KDM5B (3) [4] | Array Heatmap signal, PHF13 [5] | Array Heatmap signal, CHD4 (PPCC) [6] | Array Heatmap signal, PHRF1 (RP) [7] | Array Heatmap signal, KDM5A (1) [8] | Array Heatmap signal, PHF2 [9] | Array Heatmap signal, CHD5 (PPCC) [10] | Array Heatmap signal, ING3 [11] | Array Heatmap signal, KDM4C (TTP) [12] | Array Heatmap signal, MLL5 [13] | Array Heatmap signal, KDM7A [14] | Array Heatmap signal, RAG2 [15] | Array Heatmap signal, TRIM66 (PB) [16] | Array Heatmap signal, KDM5A (3) [17] | Array Heatmap signal, SP140L [18] | Array Heatmap signal, ING1 [19] | Array Heatmap signal, AIRE (PP) [20] | also measured
1 | H3 105-124: H3 105-124 | 0.3472 | 0.6132 | 0.3405 | 0.4564 | 0.6001 | 0.628 | 0.3871 | 0.4735 | 0.4643 | 0.5675 | 0.4768 | 0.5235 | 0.5209 | 0.4014 | 0.2418 | 0.6004 | 0.3849 | 0.3548 | 0.4905 | 0.5002 | Array Heatmap signal, BAZ2B [21]: 0.4756; Array Heatmap signal, DPF2 (PPC2W2) [22]: 0.5942; Array Heatmap signal, PHF23 [23]: 0.5245; Array Heatmap signal, ING2 [24]: 0.5916; Array Heatmap signal, ING4 [25]: 0.4475; Array Heatmap signal, PHF21A [26]: 0.4845; Array Heatmap signal, KDM5B (1) [27]: 0.6304; Array Heatmap signal, PHF8 [28]: 0.3594; Array Heatmap signal, MORC3 (CW) [29]: 0.3313; Array Heatmap signal, TAF3 [30]: 0.2585; Array Heatmap signal, CHD5 (PCC) [31]: 0.8446
2 | H3 (1-20) N-ac: H3 1-20 | 0.3522 | 0.6386 | 0.3531 | 0.5329 | 0.6234 | 0.5805 | 0.6182 | 0.4705 | 0.4904 | 0.5483 | 0.4681 | 0.4656 | 0.5714 | 0.3283 | 0.259 | 0.7386 | 0.5353 | 0.3813 | 0.5284 | 0.5035 | Array Heatmap signal, BAZ2B [21]: 0.4663; Array Heatmap signal, DPF2 (PPC2W2) [22]: 0.6951; Array Heatmap signal, PHF23 [23]: 0.532; Array Heatmap signal, ING2 [24]: 0.6126; Array Heatmap signal, ING4 [25]: 0.4519; Array Heatmap signal, PHF21A [26]: 0.4724; Array Heatmap signal, KDM5B (1) [27]: 0.6502; Array Heatmap signal, PHF8 [28]: 0.365; Array Heatmap signal, MORC3 (CW) [29]: 0.4955; Array Heatmap signal, TAF3 [30]: 0.3122; Array Heatmap signal, CHD5 (PCC) [31]: 0.8196
